# Where “and” joins values, the source holds several entries; their conditions need not be identical. Equal entries are not always repeated. Marks after values point to notes of the source that are not given here.
# Experiments:
# [1] = Partition coefficient (1-octanol / 0.02-M phosphate buffer); format: physicochemical
# Method: The partition coefficient of (+)-^125I]IV-OH was measured as described previously.
# [2] = Metabolite analysis in blood, tumor and other tissues (TLC); format: in vivo, mice; conditions: i.v., mean (SD) three samples
# Method: For metabolite analysis, the above-mentioned DU-145 tumor-bearing mice were intravenously administered with 100 μL of (+)-[^125I]IV-OH (3.7 MBq). At 10-min and 1-h post-injections, the mice were killed. Blood was collected and tissues of interest were removed. The blood was centrifuged at 1,000×g for 10 min at 4°C. After the plasma was collected, an equivalent volume of acetonitrile/water mixture (1:1) was added to the plasma. The mixture was centrifuged at 1,000×g for 10 min at 4°C. The tissues of interest (0.2 to 0.5 g) were homogenized in 1 mL of acetonitrile-water mixture (1:1). Each homogenized sample was centrifuged at 1,000×g for 10 min at 4°C. The supernatants were analyzed by TLC with a chloroform/methanol mixture (5:1) as a developing solvent. TLC plates were exposed to phosphor imaging plates (BAS IP SR 2025 E, Fujifilm, Tokyo, Japan) for 48 h. The exposed imaging plates were evaluated using an imaging scanner (BAS 5000 Bio-Imaging Analyzer, Fujifilm).
# [3] = Biodistribution in DU-145 tumor-bearing mice; format: in vivo; conditions: i.v., mean (SD)
# Method: (+)-^131I]pIV was prepared using a method described previously. To produce tumors, approximately 5 × 10^6 of the prepared DU-145 cells was injected subcutaneously into the right dorsum of 4-week-old male BALB/c nude mice (15 to 19 g, Japan SLC, Inc.). Biodistribution experiments were performed at approximately 14- to 21-day post-inoculation, i.e., when tumors reached a palpable size. Groups of four mice were intravenously administered with 100 μL of a mixed solution of (+)-^125I]IV-OH (37 kBq) and (+)-^131I]pIV (37 kBq). At 10-min, 1-, 3-, and 24-h post-injections, the mice were killed. Tissues of interest were removed and weighed, and radioactivity counts were determined with an auto well gamma counter and corrected for background radiation. A window from 16 to 71 keV was used for measuring ^125I and one from 300 to 433 keV for ^131I. The crossover of ^125I activity into the ^131I channel was negligible. Correlation factors to eliminate any crossover of ^131I activity into ^125I were determined by measuring the ^131I standard in both windows.
# [4] = tested on: DU-145 prostate cancer cell lines; test: Cellular uptake and washout experiments in vitro; format: cell-based; conditions: DU-145 cells
# Method: Radiotracer uptake studies were performed in monolayer cultures of DU-145 prostate cancer cell lines, which were obtained from ATCC (Manassas, VA, USA). Cells were grown in cell culture dishes in RPMI 1640 medium with phenol red, 10% heat-inactivated fetal bovine serum (FBS), 100-μg/mL glutamine, 100-units/mL penicillin, and 100-μg/mL streptomycin at 37°C in a humidified atmosphere of 95% air and 5% carbon dioxide. Cells were plated on 6-well tissue culture plates (4 × 10^5 cells/well) for 24 h before the study and incubated at 37°C in the culture medium without FBS containing (+)-^125I]IV-OH or (+)-^125I]pIV (3.7 kBq/well), which was prepared by a method of a previous study for different time intervals (15, 30, 60, and 120 min). For the washout experiment, tumor cells exposed to a medium containing (+)-^125I]IV-OH or (+)-^125I]pIV for 60 min were washed with phosphate buffered saline (PBS) and incubated in fresh (nonradioactive) medium without FBS at 37°C for 15, 30, and 60 min. […] After incubation, cells were washed twice with ice-cold PBS and resolved by adding 0.5 mL of 1-M NaOH. The solutions were then collected and the radioactivity was determined with an auto well gamma counter (ARC-380; Aloka) and corrected for background radiation. The radioactivity of each sample was normalized for the protein level, which was determined using a Protein Assay Bicinchoninate Kit (Nacalai Tesque).
smiles,measurement,setting,value
"Oc1ccc(C2CCN(C3CCCCC3O)CC2)cc1[125I] (single isomer, unassigned; (+)) [(+)-[^125I]IV-OH]",log P,[1],1.13 ± 0.01
same,"percent of intact (+)-[^125I]IV-OH, Blood",[2]; 10 min post-injection,17.0 (9.0) percent
same,"percent of intact (+)-[^125I]IV-OH, Blood",[2]; 1 h post-injection,0.9% and 0.9 (1.0) percent
same,"percent of intact (+)-[^125I]IV-OH, Brain",[2]; 10 min post-injection,96.4 (1.1) percent
same,"percent of intact (+)-[^125I]IV-OH, Brain",[2]; 1 h post-injection,73.7 (8.4) percent
same,"percent of intact (+)-[^125I]IV-OH, Kidney",[2]; 10 min post-injection,19.8 (3.7) percent
same,"percent of intact (+)-[^125I]IV-OH, Kidney",[2]; 1 h post-injection,2.6% and 2.6 (1.8) percent
same,"percent of intact (+)-[^125I]IV-OH, Liver",[2]; 10 min post-injection,5.4 (7.4) percent
same,"percent of intact (+)-[^125I]IV-OH, Liver",[2]; 1 h post-injection,0.1% and 0.1 (0.2) percent
same,"percent of intact (+)-[^125I]IV-OH, Tumor",[2]; 10 min post-injection,93.1 (4.3) percent
same,"percent of intact (+)-[^125I]IV-OH, Tumor",[2]; 1 h post-injection,70.2 (5.6) percent
same,"Biodistribution of radioactivity, Blood",[3]; 10 min post-injection,1.28 (0.13)* percent injected dose per gram tissue
same,"Biodistribution of radioactivity, Blood",[3]; 1 h post-injection,1.04 (0.10)* percent injected dose per gram tissue
same,"Biodistribution of radioactivity, Blood",[3]; 3 h post-injection,0.43 (0.09)** percent injected dose per gram tissue
same,"Biodistribution of radioactivity, Blood",[3]; 24 h post-injection,0.00 (0.00)* percent injected dose per gram tissue
same,"Biodistribution of radioactivity, Brain",[3]; 10 min post-injection,5.14 (0.50)* percent injected dose per gram tissue
same,"Biodistribution of radioactivity, Brain",[3]; 1 h post-injection,1.04 (0.08)* percent injected dose per gram tissue
same,"Biodistribution of radioactivity, Brain",[3]; 3 h post-injection,0.22 (0.02)* percent injected dose per gram tissue
same,"Biodistribution of radioactivity, Brain",[3]; 24 h post-injection,0.00 (0.00)* percent injected dose per gram tissue
same,"Biodistribution of radioactivity, Heart",[3]; 10 min post-injection,3.57 (0.40)* percent injected dose per gram tissue
same,"Biodistribution of radioactivity, Heart",[3]; 1 h post-injection,0.78 (0.05)* percent injected dose per gram tissue
same,"Biodistribution of radioactivity, Heart",[3]; 3 h post-injection,0.27(0.00)** percent injected dose per gram tissue
same,"Biodistribution of radioactivity, Heart",[3]; 24 h post-injection,0.01 (0.01)* percent injected dose per gram tissue
same,"Biodistribution of radioactivity, Intestine",[3]; 10 min post-injection,5.26 (0.61)* percent injected dose per gram tissue
same,"Biodistribution of radioactivity, Intestine",[3]; 1 h post-injection,7.96 (0.72)* percent injected dose per gram tissue
same,"Biodistribution of radioactivity, Intestine",[3]; 3 h post-injection,4.84 (0.95) percent injected dose per gram tissue
same,"Biodistribution of radioactivity, Intestine",[3]; 24 h post-injection,0.14 (0.02)* percent injected dose per gram tissue
same,"Biodistribution of radioactivity, Kidney",[3]; 10 min post-injection,35.01 (2.83)* percent injected dose per gram tissue
same,"Biodistribution of radioactivity, Kidney",[3]; 1 h post-injection,15.30 (1.80) percent injected dose per gram tissue
same,"Biodistribution of radioactivity, Kidney",[3]; 3 h post-injection,4.89 (0.87)** percent injected dose per gram tissue
same,"Biodistribution of radioactivity, Kidney",[3]; 24 h post-injection,0.04 (0.01)* percent injected dose per gram tissue
same,"Biodistribution of radioactivity, Liver",[3]; 10 min post-injection,7.82 (0.32)* percent injected dose per gram tissue
same,"Biodistribution of radioactivity, Liver",[3]; 1 h post-injection,9.80 (0.94)** percent injected dose per gram tissue
same,"Biodistribution of radioactivity, Liver",[3]; 3 h post-injection,2.81 (0.33)* percent injected dose per gram tissue
same,"Biodistribution of radioactivity, Liver",[3]; 24 h post-injection,0.06 (0.03)* percent injected dose per gram tissue
same,"Biodistribution of radioactivity, Lung",[3]; 10 min post-injection,9.74 (1.59)* percent injected dose per gram tissue
same,"Biodistribution of radioactivity, Lung",[3]; 1 h post-injection,1.85 (0.18)* percent injected dose per gram tissue
same,"Biodistribution of radioactivity, Lung",[3]; 3 h post-injection,0.63 (0.11)* percent injected dose per gram tissue
same,"Biodistribution of radioactivity, Lung",[3]; 24 h post-injection,0.01 (0.02)* percent injected dose per gram tissue
same,"Biodistribution of radioactivity, Muscle",[3]; 10 min post-injection,2.20 (0.58) percent injected dose per gram tissue
same,"Biodistribution of radioactivity, Muscle",[3]; 1 h post-injection,0.45 (0.03)* percent injected dose per gram tissue
same,"Biodistribution of radioactivity, Muscle",[3]; 3 h post-injection,0.26 (0.10) percent injected dose per gram tissue
same,"Biodistribution of radioactivity, Muscle",[3]; 24 h post-injection,0.01 (0.01)* percent injected dose per gram tissue
same,"Biodistribution of radioactivity, Pancreas",[3]; 10 min post-injection,25.04 (2.40)* percent injected dose per gram tissue
same,"Biodistribution of radioactivity, Pancreas",[3]; 1 h post-injection,12.80 (0.97)* percent injected dose per gram tissue
same,"Biodistribution of radioactivity, Pancreas",[3]; 3 h post-injection,2.94 (0.49)* percent injected dose per gram tissue
same,"Biodistribution of radioactivity, Pancreas",[3]; 24 h post-injection,0.01 (0.01)* percent injected dose per gram tissue
same,"Biodistribution of radioactivity, Spleen",[3]; 10 min post-injection,8.11 (1.24) percent injected dose per gram tissue
same,"Biodistribution of radioactivity, Spleen",[3]; 1 h post-injection,1.84 (0.11)* percent injected dose per gram tissue
same,"Biodistribution of radioactivity, Spleen",[3]; 3 h post-injection,0.60 (0.12)* percent injected dose per gram tissue
same,"Biodistribution of radioactivity, Spleen",[3]; 24 h post-injection,0.01 (0.02)* percent injected dose per gram tissue
same,"Biodistribution of radioactivity, Stomach",[3]; 10 min post-injection,1.18 (0.36) percent injected dose
same,"Biodistribution of radioactivity, Stomach",[3]; 1 h post-injection,0.62 (0.18) percent injected dose
same,"Biodistribution of radioactivity, Stomach",[3]; 3 h post-injection,0.55 (0.25) percent injected dose
same,"Biodistribution of radioactivity, Stomach",[3]; 24 h post-injection,0.03 (0.02)* percent injected dose
same,"Biodistribution of radioactivity, Tumor",[3]; 10 min post-injection,9.55 (0.64)** percent injected dose per gram tissue
same,"Biodistribution of radioactivity, Tumor",[3]; 1 h post-injection,5.45 (0.70) percent injected dose per gram tissue
same,"Biodistribution of radioactivity, Tumor",[3]; 3 h post-injection,2.57 (0.41) percent injected dose per gram tissue
same,"Biodistribution of radioactivity, Tumor",[3]; 24 h post-injection,0.06 (0.04)** percent injected dose per gram tissue
same,time at which uptake was saturated,[4],30 min
same,accumulation in the presence of haloperidol,[4]; haloperidol 10 μM in culture medium,remarkably lessened
same,intracellular radioactivity released into the supernatant,"[4]; within 60 min after medium replacement, specific uptake",Approximately 71%

# From PMC3524758, “Development and evaluation of a novel radioiodinated vesamicol analog as a sigma receptor imaging agent” (EJNMMI Research, 2012)
